According to patent publication US20230372350A1, “ASTROCYTIC TRPA1 CHANNEL INHIBITION AS A NOVEL NEUROPROTECTIVE THERAPEUTIC TARGET IN THE PRODROMAL PHASES OF ALZHEIMER'S DISEASE” (priority 2020, published 2023):

Test system: CA1 pyramidal neurons of APP/PS1-21 and WT mice
Assay: Chronic intraperitoneal treatment: whole-cell recording of sEPSCs of CA1 pyramidal neurons
Type: in vivo, mouse
Experimental: The used model is a transgenic murine model obtained on a C57BL/6J genetic background which co-expresses the mutated human form of the amyloid precursor protein (mutated APP KM670/671NL) and of presenilin 1 (mutated PS1 L166P) under the control of the neural promoter Thy1. The presence of these two mutations allows increased production of the Aβ peptide from the 14th postnatal day. This leads to cerebral amyloidosis with the appearance of the first senile plaques around 8 postnatal weeks. This amyloid pathology is accompanied by inflammatory gliosis (microgliosis and astrogliosis detectable from 4 months), dendritic spine dystrophy and tau hyperphosphorylation (around 8 months). Cognitive behavioral disorders, and in particular of learning and spatial memory, are developed in around 6 to 8 months. This model was set-up and described by Rebecca Radde in 2006 (Radde et al., EMBO reports, 2006) and is widely used by the scientific community. This model is available in the animal facility of the Institut des Neurosciences de Grenoble and has been bred by the inventors since 2014. This solution is then diluted to 1 μg/μl in an isotonic solution containing 1% Pluronic F-127 and 0.9% NaCl. The animals are injected daily intraperitoneally at a dose of 5 mg/kg of body mass. Sterile 0.5 ml BD MicroFine syringes with no dead volume, equipped with a 30G (0.3 mm) needle are used for the injections. The carrier (10% DMSO, 1% Pluronic F-127, 0.9% NaCl) is used as a control and is also injected daily, according to the same procedure, into the WT and APP/PS1 control animals (carrier groups). The injection is started from the 14th postnatal day (appearance of the expression of the Thy1gene promoter in the hippocampus, triggering the overexpression of Aβ in the APP/PS1-21 murine model) Coronal sections of the hippocampus (thickness 300 μm) were prepared from APP/PS1-21 transgenic mice (1 month and 3 months old) or from WT mice from the same litter. The mice were sacrificed by decerebration and decapitation. The brain was quickly removed and sectioned in ice-cold ACSF containing (in mM) : 2.5 KCl, 7 MgCl2, 0.5 CaCl2, 1.2 NaHPO4, 25 NaHCO3, 11D-glucose and 234 sucrose bubbled with 95% of O2 and 5% of CO2 with a V[…] vibratome (Leica, Germany). The sections containing the hippocampus were placed in ACSF containing (in mM) : 126 NaCl, 2.5 KCl, 1.2 MgCl2, 2.5 CaCl2, 1.2 NaH2PO4 bubbled with 95% of O2 and 5% of CO2 and supplemented with 1 mM of sodium pyruvate at room temperature for a recovery period. Whole-cell recordings were performed on visually identified CA1 pyramidal neuron somas. The patch pipettes (4-6 MΩ) were filled with an internal solution containing (in mM): 105 K-gluconate, 30 KCL, 10 phosphocreatine, 10 HEPES, 4 ATP-Mg, 0.3 GTP-Tris, 0.3 EGTA, adjusted to pH 7.2 with KOH. Spontaneously excitatory postsynaptic currents (sEPSCs) were collected at a membrane holding potential of -60 mV which is close to the GABA reversal potential. All recordings were made at room temperature (22-24° C.) and only a single neuron was studied per section. The sEPSCs and their kinetics were analyzed, after a stabilization period of 10 minutes, 5 minutes from the recordings. Access resistance was constantly monitored and recordings were excluded from this study when this parameter varied more than 20% during the experiment. Recordings were analyzed using the Clampfit module of pClamp8 software (Molecular Devices, USA) with a single one at 20 pA to exclude miniature sEPSCs.

[1] = APP/PS1-21 mice, 3 months, 5 mg/kg i.p. from 14th postnatal day
[2] = WT mice, 3 months, chronic treatment 5 mg/kg i.p.

Structure (SMILES): CC(C)c1ccc(NC(=O)Cn2cnc3c2c(=O)n(C)c(=O)n3C)cc1 [HC030031, 2-(1,3-Dimethyl-2,6-dioxo-1,2,3,6-tetrahydro-7H-purin-7-yl)-N-(4-isopropylphenyl)acetamide]
- sEPSC amplitude (1-month old mice, 5 mg/kg i.p. daily from 14th postnatal day): no impact
- amplitude of sEPSCs [1]: 33.4±1.4 pA
- frequency of sEPSCs [1]: 0.10±0.01 Hz
- frequency of sEPSCs (APP/PS1-21 transgenic mice, 1 month, 5 mg/kg i.p. daily from 14th postnatal day): 0.10±0.02 Hz
- frequency of sEPSCs (WT litter mice, 1 month, 5 mg/kg i.p. daily from 14th postnatal day): 0.10±0.04 Hz
- amplitude of the sEPSCs [2]: no effect
- frequency of the sEPSCs [2]: no effect
